Reference: ChEMBL document CHEMBL1201862, “PubChem BioAssay data set” (2004)
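Briefly, cells in 96-well plates were exposed to five compound concentrations for 48 h, and endpoints were estimated by linear interpolation. GI50 = concentration required for 50% inhibition of growth.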 Active and inactive are the calls of the source. No stated cut-off is given here; in the data, active = GI50 up to about 1.1 µM and inactive = higher.

Experiments:
Assay in all cases: NCI-60 cell line screen, 48 h
ACHN = system: ACHN
CCRF-CEM = system: CCRF-CEM
HT-29 = system: HT-29
K562 = system: K562
KM12 = system: KM12
LOX IMVI = system: LOX IMVI
M14 = system: M14
NCI-H460 = system: NCI-H460
OVCAR-4 = system: OVCAR-4
OVCAR-8 = system: OVCAR-8
SF-268 = system: SF-268
SK-MEL-2 = system: SK-MEL-2
SR = system: SR
SW-620 = system: SW-620
UO-31 = system: UO-31
OVCAR-3 = system: OVCAR-3
RXF 393 = system: RXF 393
SNB-19 = system: SNB-19

Measured: GI50

NNC(=S)N/N=C(/C(=O)Nc1ccc([N+](=O)[O-])cc1)c1nc2ccc([N+](=O)[O-])cc2nc1O
inactive: ACHN 95.3 µM | CCRF-CEM > 100 µM | HT-29 > 100 µM | K562 > 100 µM | KM12 > 100 µM | LOX IMVI > 100 µM | M14 > 100 µM | NCI-H460 > 100 µM | OVCAR-4 > 100 µM | OVCAR-8 > 100 µM | SF-268 > 100 µM | SK-MEL-2 > 100 µM | SR > 100 µM | SW-620 > 100 µM | UO-31 > 100 µM

O=S(=O)(C/C(=N\O)c1ccccc1)c1ccccc1
inactive: ACHN > 100 µM | CCRF-CEM > 100 µM | HT-29 > 100 µM | K562 > 100 µM | KM12 > 100 µM | LOX IMVI > 100 µM | M14 > 100 µM | NCI-H460 > 100 µM | OVCAR-3 > 100 µM | OVCAR-4 > 100 µM | OVCAR-8 > 100 µM | RXF 393 > 100 µM | SF-268 > 100 µM | SK-MEL-2 > 100 µM | SNB-19 > 100 µM | SW-620 > 100 µM | UO-31 > 100 µM

CC1=C(C(=O)Nc2ccc([N+](=O)[O-])cc2)C(c2ccccc2F)C(C(=O)Nc2ccc([N+](=O)[O-])cc2)=C(C)N1
inactive: ACHN 4.21 µM | CCRF-CEM 7 µM | HT-29 20.1 µM | K562 6.61 µM | KM12 9.14 µM | LOX IMVI 11 µM | M14 15.1 µM | NCI-H460 13.6 µM | OVCAR-3 8.32 µM | OVCAR-4 9.14 µM | OVCAR-8 21.7 µM | RXF 393 6.75 µM | SF-268 21.2 µM | SK-MEL-2 9.31 µM | SNB-19 21.1 µM | SW-620 21.8 µM | UO-31 6.61 µM

CCOC(=O)/C(=C/c1cccc(Cl)c1)N(CC)CC
inactive: ACHN 35.5 µM | CCRF-CEM 43.1 µM | HT-29 > 100 µM | K562 52.2 µM | KM12 39.1 µM | LOX IMVI 81.8 µM | M14 64.3 µM | NCI-H460 46.5 µM | OVCAR-4 47.1 µM | OVCAR-8 42.2 µM | SF-268 52.7 µM | SK-MEL-2 29.6 µM | SR > 100 µM | SW-620 59 µM | UO-31 37.1 µM

O=C1OC(=O)c2c1c(-c1ccccc1)nc1ccccc21
inactive: CCRF-CEM > 100 µM | HT-29 > 100 µM | K562 > 100 µM | KM12 > 100 µM | LOX IMVI > 100 µM | M14 > 100 µM | NCI-H460 > 100 µM | OVCAR-3 > 100 µM | OVCAR-8 > 100 µM | RXF 393 > 100 µM | SF-268 > 100 µM | SK-MEL-2 > 100 µM | SNB-19 > 100 µM | SW-620 > 100 µM | UO-31 > 100 µM

CC(C)c1ccccc1NC(=O)C(=O)Cc1nc2ccccc2s1
inactive: ACHN > 100 µM | CCRF-CEM > 100 µM | HT-29 > 100 µM | KM12 > 100 µM | M14 > 100 µM | NCI-H460 > 100 µM | OVCAR-3 > 100 µM | OVCAR-4 > 100 µM | OVCAR-8 > 100 µM | RXF 393 > 100 µM | SF-268 > 100 µM | SK-MEL-2 > 100 µM | SNB-19 > 100 µM | SR > 100 µM | SW-620 > 100 µM | UO-31 > 100 µM

COc1cccc(C2CC23C(=O)NC(=O)NC3=O)c1 (stereo not drawn)
inactive: ACHN > 100 µM | CCRF-CEM > 100 µM | HT-29 > 100 µM | K562 > 100 µM | KM12 > 100 µM | LOX IMVI > 100 µM | M14 > 100 µM | NCI-H460 > 100 µM | OVCAR-3 > 100 µM | OVCAR-4 > 100 µM | OVCAR-8 > 100 µM | SF-268 > 100 µM | SK-MEL-2 > 100 µM | SNB-19 > 100 µM | SR > 100 µM | SW-620 > 100 µM | UO-31 > 100 µM

CC1(C)Oc2ccccc2[N+]([O-])=C1c1ccccc1
inactive: ACHN > 100 µM | CCRF-CEM > 100 µM | HT-29 > 100 µM | K562 > 100 µM | M14 > 100 µM | NCI-H460 > 100 µM | OVCAR-3 > 100 µM | OVCAR-4 > 100 µM | OVCAR-8 > 100 µM | RXF 393 > 100 µM | SF-268 > 100 µM | SNB-19 > 100 µM | SR > 100 µM | SW-620 > 100 µM | UO-31 > 100 µM

COc1ccc(/C=C2\C(=O)N(C(=O)Cc3ccccc3)N=C2C)cc1OC
inactive: ACHN > 100 µM | CCRF-CEM > 100 µM | HT-29 > 100 µM | K562 > 100 µM | KM12 > 100 µM | LOX IMVI > 100 µM | M14 > 100 µM | OVCAR-3 > 100 µM | OVCAR-4 > 100 µM | OVCAR-8 > 100 µM | SF-268 > 100 µM | SK-MEL-2 > 100 µM | SNB-19 > 100 µM | SR > 100 µM | SW-620 > 100 µM | UO-31 > 100 µM

O=C1NC2(O)c3ccccc3C(=O)C2(O)N1c1ccccc1 (stereo not drawn)
inactive: CCRF-CEM > 100 µM | HT-29 > 100 µM | K562 > 100 µM | KM12 > 100 µM | LOX IMVI > 100 µM | M14 > 100 µM | NCI-H460 > 100 µM | OVCAR-3 > 100 µM | OVCAR-4 > 100 µM | OVCAR-8 > 100 µM | SF-268 > 100 µM | SK-MEL-2 > 100 µM | SNB-19 > 100 µM | SR > 100 µM | SW-620 > 100 µM | UO-31 > 100 µM

CC(C1=CC=C2[C@@H]3CCC4CC(N(C)C)CC[C@]4(C)C3CC[C@]12C)N(C)C=O (stereo partly drawn)
inactive: ACHN > 100 µM | CCRF-CEM > 100 µM | HT-29 25.3 µM | K562 36.1 µM | KM12 > 100 µM | LOX IMVI 25.7 µM | M14 > 100 µM | NCI-H460 > 10 µM | OVCAR-3 > 100 µM | OVCAR-4 > 100 µM | OVCAR-8 > 100 µM | RXF 393 > 100 µM | SF-268 > 100 µM | SK-MEL-2 > 100 µM | SNB-19 > 100 µM | SW-620 > 100 µM | UO-31 > 100 µM

N#C/N=C(/N)NCN/C(N)=N\C#N
inactive: ACHN > 100 µM | CCRF-CEM > 100 µM | HT-29 > 100 µM | K562 43.7 µM | KM12 > 100 µM | M14 > 100 µM | NCI-H460 > 100 µM | OVCAR-3 > 100 µM | OVCAR-4 59.4 µM | OVCAR-8 > 100 µM | RXF 393 73.3 µM | SF-268 > 100 µM | SK-MEL-2 > 100 µM | SNB-19 > 100 µM | SR 27.1 µM | SW-620 17.4 µM | UO-31 > 100 µM
